# How the values were obtained:
# [1] = tested on: subjects with biopsy proven NASH; experiment: Prospective, multi-centric, open-label, single arm study in Non-alcoholic steatohepatitis: efficacy parameters; format: in vivo, human
# Procedure: (§1) Title of the Study—“A prospective, multi-centric, open-label, single arm study to evaluate the safety and efficacy of 4 mg of magnesium salt of compound of formula (I) wherein R is -SMe in a pharmaceutical composition as described above in Non-alcoholic steatohepatitis.”
# (§2) To evaluate the safety and efficacy of 4 mg of magnesium salt of compound of formula (I) wherein R is -SMe in Non-alcoholic steatohepatitis (NASH).
# (§3) • Primary Efficacy (Time Frame 6 and 12 Weeks): • 1. Change in alanine aminotransferase (ALT) from baseline • Secondary Efficacy (Time Frame 6 and 12 Weeks): • Sustained reduction in ALT level. • C-peptide test for homeostasis model assessment (HOMA) beta and HOMA IR • Triglyceride (TG) Criteria for Safety: • 1. General and Systemic Clinical Examination: Cardiovascular system (CVS), respiratory system (RS), gastro-intestinal system (GIS), central nervous system (CNS) etc. • 2. Laboratory Investigations: Complete blood count (CBC), aspartate aminotransferase(AST), ALT, alkaline phosphatase (ALP), serum bilirubin, γ-glutamyl transpeptidase (GGT), Serum proteins, blood urea nitrogen (BUN), Serum creatinine, creatinine phosphokinase (CPK), fasting plasma glucose (FPG). • 3. Frequency and severity of adverse events (AEs) for all subjects enrolled were recorded. All AEs, were classified using • causality • severity • seriousness Methodology:
# (§4) It is an interventional, single arm, safety and efficacy study to explore effect of magnesium salt of compound of formula (I) wherein R is -SMe suitably formulated as described above, on NASH.
# Subjects was diagnosed by biopsy as suffering from NASH in last one year and willing to participate in study were invited for screening programme for inclusion in the study.
# (§5) All subjects were given suitable formulation of magnesium salt of compound of formula (I) wherein R is -SMe 4 mg for 12 weeks. Lifestyle modification was continued as before the study. Patient was monitored for safety and efficacy of magnesium salt of compound of formula (I) wherein R is -SMe.
# (§6) After Clinical evaluations, all baseline safety and efficacy parameters were recorded as per Table (I) given below. All laboratory investigations were carried out after overnight fasting.
# (§7) Safety and efficacy parameters were assessed as per Table (I) given below.
# Subjects were clinically examined and safety and efficacy parameters were assessed as per Table (I) given below. […]
# [2] = tested on: subjects with biopsy proven NASH; experiment: Prospective, multi-centric, open-label, single arm study in Non-alcoholic steatohepatitis: safety and tolerability; format: in vivo, human
# Procedure: as §1, §2, §3, §4, §5, §6
# Subjects were clinically examined and given the study medications for four weeks and also safety parameters were assessed as per Table (I)given below.
# as §7
# Subjects were clinically examined and safety and efficacy parameters were assessed as per Table (I) given below.
# If further investigations are required in case of any AE, investigator will be advised to assess the AE and take necessary action, if required. Subjects will be advised to contact the investigator for any complaints within next two weeks. […]
# [3] = 4 mg, Safety Population, at Week 3 and at Week 4 (so in the source), FIG. 2
# [4] = 4 mg, at 6 and 12 weeks, PP analysis, FIG. 3
# [5] = 4 mg, during the study, mild, none considered clinically significant by the investigator
compound,measurement,setting,value
CCO[C@@H](Cc1ccc(OCCn2c(C)ccc2-c2ccc(SC)cc2)cc1)C(=O)[O-].CCO[C@@H](Cc1ccc(OCCn2c(C)ccc2-c2ccc(SC)cc2)cc1)C(=O)[O-].[Mg+2],Change in ALT levels from baseline,"[1]; 4 mg for 12 weeks, NASH patients, PP population, visit 3 (week 6) and visit 4 (week 12), FIG. 1",statistically significant reduction
same,Patients with sustained reduction in ALT levels,"[1]; 4 mg, PP population, visit 3 (week 6)",63.16 % of patients
same,Patients with sustained reduction in ALT levels,"[1]; 4 mg, PP population, visit 4 (week 12)",78.95 % of patients
same,Change in Aspartate Transaminase,[1]; [3],statistical significant decrease
same,Change in alkaline phosphatase,[1]; [3],statistical significant decrease
same,Change in gamma-glutamyl transpeptidase,[1]; [3],statistical significant decrease
same,Change in C peptide levels,[1]; [4],non-significant change
same,Change in HOMA-Beta cell function,[1]; [4],non-statistically significant reduction
same,Change in HOMA-Insulin Resistance,[1]; [4],non-statistically significant reduction
same,Decrease in triglyceride as compared to baseline,"[1]; 4 mg, patients with baseline TG<150 mg/dl, week 12, PP population, FIG. 4",not statistically significant
same,Decrease in serum triglycerides as compared to baseline,"[1]; 4 mg, patients with baseline TG≧150 mg/dl, week 6 and 12, PP population, FIG. 4",not statistically significant
same,Overall safety and tolerability,"[2]; 4 mg for 12 weeks, NASH patients",safe and well tolerated
same,Changes from baseline in various laboratory parameters,[2]; 4 mg treatment arm,no persistent changes from baseline
same,Deaths or SAEs reported,[2]; 4 mg treatment arm,no deaths or SAEs
same,Overall incidence of AEs,[2]; 4 mg treatment arm,Nil
same,Change in weight compared to baseline,"[2]; 4 mg, NASH patients, visit 2, 3 and 4",no significant change in weight
same,Events of raised CPK value,[2]; [5],five
same,Events of raised creatinine,[2]; [5],Few events

# Reference: patent publication US9814697B2, “Composition for nonalcoholic fatty liver disease (NAFLD)” (Cadila Healthcare Limited, priority 2013, dated 2017)
